{"source": "PubChem BioAssay AID1259407", "about": "(Chemical Carcinogenesis Research Information System (CCRIS), 2018)", "system": "CCRIS mutagenicity, Ames/micronucleus/aberration tests", "assay": "CCRIS mutagenicity studies", "key": {"[1]": {"details": "Test System: AMES SALMONELLA TYPHIMURIUM, Strain/Indicator: TA1535, Metabolic Activation: NONE, Method: PREINCUBATION"}}, "note": "Active and inactive are the calls of the source. How the calls were made is not given here.", "data": [{"smiles": "Clc1ccc(COC(Cn2ccnc2)c2ccc(Cl)cc2Cl)cc1", "note": "(configuration not stated)", "values": [{"measurement": "mutagenic call", "setting": "End Point: IN VITRO MICRONUCLEUS, Test System: HAMSTER V79 CELLS, Metabolic Activation: NONE", "result": "inactive; negative"}, {"measurement": "mutagenic call", "setting": "Test System: AMES SALMONELLA TYPHIMURIUM, Strain/Indicator: TA97, Metabolic Activation: HAMSTER, LIVER, S-9, AROCLOR 1254 (10 OR 30%), Method: PREINCUBATION", "result": "inactive; negative"}, {"measurement": "mutagenic call", "setting": "Test System: AMES SALMONELLA TYPHIMURIUM, Strain/Indicator: TA97, Metabolic Activation: NONE, Method: PREINCUBATION", "result": "inactive; negative"}, {"measurement": "mutagenic call", "setting": "Test System: AMES SALMONELLA TYPHIMURIUM, Strain/Indicator: TA97, Metabolic Activation: RAT, LIVER, S-9, AROCLOR 1254 (10 OR 30%), Method: PREINCUBATION", "result": "inactive; negative"}, {"measurement": "mutagenic call", "setting": "Test System: AMES SALMONELLA TYPHIMURIUM, Strain/Indicator: TA98, Metabolic Activation: HAMSTER, LIVER, S-9, AROCLOR 1254 (10 OR 30%), Method: PREINCUBATION", "result": "inactive; negative"}, {"measurement": "mutagenic call", "setting": "Test System: AMES SALMONELLA TYPHIMURIUM, Strain/Indicator: TA98, Metabolic Activation: NONE, Method: PREINCUBATION", "result": "inactive; negative"}, {"measurement": "mutagenic call", "setting": "Test System: AMES SALMONELLA TYPHIMURIUM, Strain/Indicator: TA98, Metabolic Activation: RAT, LIVER, S-9, AROCLOR 1254 (10 OR 30%), Method: PREINCUBATION", "result": "inactive; negative"}, {"measurement": "mutagenic call", "setting": "Test System: AMES SALMONELLA TYPHIMURIUM, Strain/Indicator: TA100, Metabolic Activation: HAMSTER, LIVER, S-9, AROCLOR 1254 (10 OR 30%), Method: PREINCUBATION", "result": "inactive; negative"}, {"measurement": "mutagenic call", "setting": "Test System: AMES SALMONELLA TYPHIMURIUM, Strain/Indicator: TA100, Metabolic Activation: NONE, Method: PREINCUBATION", "result": "inactive; negative"}, {"measurement": "mutagenic call", "setting": "Test System: AMES SALMONELLA TYPHIMURIUM, Strain/Indicator: TA100, Metabolic Activation: RAT, LIVER, S-9, AROCLOR 1254 (10 OR 30%), Method: PREINCUBATION", "result": "inactive; negative"}, {"measurement": "mutagenic call", "setting": "Test System: AMES SALMONELLA TYPHIMURIUM, Strain/Indicator: TA1535, Metabolic Activation: HAMSTER, LIVER, S-9, AROCLOR 1254 (10 OR 30%), Method: PREINCUBATION", "result": "inactive; negative"}, {"measurement": "mutagenic call", "setting": "[1]", "result": "inactive; negative"}, {"measurement": "mutagenic call", "setting": "Test System: AMES SALMONELLA TYPHIMURIUM, Strain/Indicator: TA1535, Metabolic Activation: RAT, LIVER, S-9, AROCLOR 1254 (10 OR 30%), Method: PREINCUBATION", "result": "inactive; negative"}]}, {"smiles": "CCCCCC(=O)N=c1sn(C(=O)CCCCC)c2ccc([N+](=O)[O-])cc12", "values": [{"measurement": "mutagenic call", "setting": "Test System: AMES SALMONELLA TYPHIMURIUM, Strain/Indicator: TA100, Metabolic Activation: S-9, Method: STANDARD PLATE", "result": "active; positive"}]}, {"smiles": "CC(C)CCC[C@@H](C)[C@H]1CC[C@H]2[C@@H]3[C@H](OO)C=C4C[C@@H](O)CC[C@]4(C)[C@H]3CC[C@]12C", "values": [{"measurement": "mutagenic call", "setting": "Test System: AMES SALMONELLA TYPHIMURIUM, Strain/Indicator: TA1537, Metabolic Activation: NONE, Method: PREINCUBATION", "result": "active; positive"}]}, {"smiles": "C[n+]1c2ccccc2nc2ccccc21", "values": [{"measurement": "mutagenic call", "setting": "Test System: AMES SALMONELLA TYPHIMURIUM, Strain/Indicator: TA98, Metabolic Activation: NONE, Method: STANDARD PLATE", "result": "inactive; negative"}, {"measurement": "mutagenic call", "setting": "Test System: AMES SALMONELLA TYPHIMURIUM, Strain/Indicator: TA102, Metabolic Activation: NONE, Method: PREINCUBATION", "result": "inactive; negative"}, {"measurement": "mutagenic call", "setting": "Test System: AMES SALMONELLA TYPHIMURIUM, Strain/Indicator: TA102, Metabolic Activation: NONE, Method: STANDARD PLATE", "result": "inactive; negative"}, {"measurement": "mutagenic call", "setting": "[1]", "result": "inactive; negative"}, {"measurement": "mutagenic call", "setting": "Test System: AMES SALMONELLA TYPHIMURIUM, Strain/Indicator: TA1535, Metabolic Activation: NONE, Method: STANDARD PLATE", "result": "inactive; negative"}, {"measurement": "mutagenic call", "setting": "Test System: AMES SALMONELLA TYPHIMURIUM, Strain/Indicator: TA1535, Metabolic Activation: RAT, LIVER, S-9, AROCLOR 1254, Method: STANDARD PLATE", "result": "inactive; negative"}, {"measurement": "mutagenic call", "setting": "Test System: AMES SALMONELLA TYPHIMURIUM, Strain/Indicator: TA1537, Metabolic Activation: NONE, Method: STANDARD PLATE", "result": "active; positive"}, {"measurement": "mutagenic call", "setting": "Test System: AMES SALMONELLA TYPHIMURIUM, Strain/Indicator: TA1537, Metabolic Activation: RAT, LIVER, S-9, AROCLOR 1254, Method: STANDARD PLATE", "result": "active; positive"}, {"measurement": "mutagenic call", "setting": "Test System: AMES SALMONELLA TYPHIMURIUM, Strain/Indicator: TA1538, Metabolic Activation: NONE, Method: STANDARD PLATE", "result": "inactive; negative"}, {"measurement": "mutagenic call", "setting": "Test System: AMES SALMONELLA TYPHIMURIUM, Strain/Indicator: TA1538, Metabolic Activation: RAT, LIVER, S-9, AROCLOR 1254, Method: STANDARD PLATE", "result": "inactive; negative"}, {"measurement": "mutagenic call", "setting": "Test System: AMES SALMONELLA TYPHIMURIUM, Strain/Indicator: TA1975, Metabolic Activation: NONE, Method: PREINCUBATION", "result": "inactive; negative"}, {"measurement": "mutagenic call", "setting": "Test System: AMES SALMONELLA TYPHIMURIUM, Strain/Indicator: TA2638, Metabolic Activation: NONE, Method: STANDARD PLATE", "result": "inactive; negative"}, {"measurement": "mutagenic call", "setting": "Test System: AMES SALMONELLA TYPHIMURIUM, Strain/Indicator: YG3001, Metabolic Activation: NONE, Method: PREINCUBATION", "result": "inactive; negative"}, {"measurement": "mutagenic call", "setting": "Test System: AMES SALMONELLA TYPHIMURIUM, Strain/Indicator: YG3002, Metabolic Activation: NONE, Method: PREINCUBATION", "result": "inactive; negative"}, {"measurement": "mutagenic call", "setting": "Test System: AMES SALMONELLA TYPHIMURIUM, Strain/Indicator: YG3003, Metabolic Activation: NONE, Method: PREINCUBATION", "result": "inactive; negative"}, {"measurement": "mutagenic call", "setting": "Test System: E. COLI, Strain/Indicator: WP2 (PKM101), Metabolic Activation: NONE, Method: STANDARD PLATE", "result": "inactive; negative"}, {"measurement": "mutagenic call", "setting": "Test System: E. COLI, Strain/Indicator: WP2 UVRA (PKM101), Metabolic Activation: NONE, Method: STANDARD PLATE", "result": "active; positive"}]}]}
